Data on 16 compounds can be found in patent US8481495B2 (TetraLogic Pharmaceuticals Corporation, priority 2009, dated 2013).

For one assay, the target named is T1, cIAP-1 BIR-3 (Homo sapiens, UniProt Q13490).
T1 construct: 40 nM of the respective IAP BIR3
The experiment in a line: Fluorescence polarization binding to cIAP-1 BIR-3 with labeled peptide AbuRPF-K(5-Fam)-NH2. The note with it: cIAP-1 BIR-3, 40 nM BIR3, 5 nM labeled peptide, 15 min RT, pH 7.5; read-out: cIAP1, nM (binding affinity KD, as range). As for the experimental part: (§1) The binding affinities of the compounds are reported as a KD value (μM). Briefly, various concentrations of test peptides were mixed with 5 nM of the fluorescently labeled peptide (i.e., a mutated N-terminal Smac peptide-AbuRPF-K(5-Fam)-NH2) and 40 nM of the respective IAP BIR3 for 15 min at RT in […] of 0.1M Potassium Phosphate buffer, pH 7.5 containing […] bovine g-globulin. Following incubation, the polarization values (mP) were measured on a Victor2V™ (available from PerkinElmer® Life Sciences) using a 485 nm excitation filter and a 520 nm emission filter. The reported binding affinities (KD values) are supplied as ranges (A=<0.1 μM, B=0.1 μM to 1 μM, C=>1 μM to 10 μM, D=>10 μM).
On the technique in general: Fluorescence polarisation rises when a labelled molecule tumbles more slowly, as on binding a larger partner.

For a further assay, the target named is T2, XIAP BIR-3 (Homo sapiens, UniProt P98170).
T2 construct: 40 nM of the respective IAP BIR3
T2 sequence (P98170 241-356 limits assumed): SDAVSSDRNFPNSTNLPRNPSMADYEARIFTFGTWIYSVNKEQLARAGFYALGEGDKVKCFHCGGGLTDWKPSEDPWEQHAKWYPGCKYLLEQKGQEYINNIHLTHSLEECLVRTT
The assay is described as follows: Fluorescence polarization binding to XIAP BIR-3 with labeled peptide AbuRPF-K(5-Fam)-NH2. The note with it: XIAP BIR-3, 40 nM BIR3, 5 nM labeled peptide, 15 min RT, pH 7.5; read-out: XIAP, nM (binding affinity KD, as range). On the procedure: as §1

The subject of another assay is SK-OV-3 cells. The experiment in a line: MTT cell growth inhibition assay in ovarian cancer cell line SK-OV-3. The note with it: Homo sapiens, 72 hrs incubation, read-out: SKOV3, nM (CC50, concentration giving 50% cell survival, as range). The format is cell-based. As for the experimental part: Compounds of the invention also were tested for their ability to inhibit the growth of an ovarian cancer cell line, SK-OV-3. A known assay previously used for measuring cell growth (as described in Hansen, M. B., Nielsen, S. E., and Berg, K. (1989) J. Immunol. Methods 119, 203-210 and incorporated herein by reference in its entirety) was used. Briefly, SK-OV-3 cells are seeded in 96-well plates in McCoy's medium containing 10% fetal bovine serum albumin (5,000 per well) and incubated overnight at 37° C. The next day, test compounds are added at various concentrations (0.003-10 μM) and the plates are incubated at 37° C. for an additional 72 hrs. This incubation time was considered to be optimal for measuring inhibitory effects of the different compounds tested. 50 microliters of 5 mg/mL MTT reagent is added to each well and the plates are incubated at 37° C. for another three (3) hours. At the end of the three (3) hour incubation period, 50 microliters of DMSO is added to each well to dissolve cells and the optical density (OD) of the wells is measured with a microplate reader (Victor^2 1420™, Wallac, Finland) at 535 nm. Cell survival (CS) was calculated using the following equation: CS=(OD treated well/mean OD control wells)×100%.
The CC50 (reported in the following tables), is defined as the drug concentration that results in 50% cell survival (CS), and is derived by calculating the point where the dose-response curve crosses the 50% CS point using GraphPad Prism® graphing software. The reported CC50 values are supplied as ranges (A=<0.1 μM, B=0.1 μM to 1 μM, C=>1 μM to 10 μM, D=>10 μM).

Bounds are passed on as bounds.

T1 sequence (Q13490 253-363 limits assumed): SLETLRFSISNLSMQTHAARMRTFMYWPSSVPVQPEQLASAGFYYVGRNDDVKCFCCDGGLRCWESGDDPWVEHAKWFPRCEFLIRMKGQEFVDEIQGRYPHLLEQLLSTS

Consider `CN[C@@H](C)C(=O)N[C@H](C(=O)N1CC[C@H]2NC[C@@H](C(=O)Nc3ccccc3)[C@H]21)C1CCCCC1` [Example 32], for which the dissociation constant (Kd) (usually the concentration at which binding is half-saturated) is under 100 nM on cIAP-1 BIR-3 and 100 to 1000 nM on XIAP BIR-3. Also, the CC50 in the assay with SK-OV-3 cells fell in the range of 1000 to 10000 nM.

Take `CNC(C)C(=O)NC(C(=O)N1CCC2C1C(C(=O)NC1CCCc3ccccc31)CN2C(=O)C1CC1)C1CCCCC1` (stereo not drawn) [Example 33, 4-[2-Cyclohexyl-2-(2-methylamino-propionylamino)-acetyl]-1-cyclopropanecarbonyl-octahydro-pyrrolo[3,2-b]pyrrole-3-carboxylic acid (1,2,3,4-tetrahydro-naphthalen-1-yl)-amide]: the Kd at cIAP-1 BIR-3 and at XIAP BIR-3 was under 100 nM throughout. The CC50 with SK-OV-3 cells is under 100 nM.

In the case of `CN[C@@H](C)C(=O)N[C@H](C(=O)N1CC[C@@H]2[C@H]1[C@@H](C(=O)N[C@@H]1CCCc3ccccc31)CN2C(C)=O)C(C)(C)C` [Example 34, 1-Acetyl-4-[3,3-dimethyl-2-(2-methylamino-propionylamino)-butyryl]-octahydro-pyrrolo[3,2-b]pyrrole-3-carboxylic acid (1,2,3,4-tetrahydro-naphthalen-1-yl)-amide], the Kd on cIAP-1 BIR-3 and at XIAP BIR-3 was under 100 nM each time. In addition, in the assay on SK-OV-3 cells, the CC50 is under 100 nM.

For `CN[C@@H](C)C(=O)N[C@H](C(=O)N1CC[C@@H]2[C@H]1[C@@H](C(=O)NCc1ccc(F)cc1)CN2C(C)=O)C(C)(C)C` [Example 35, 1-Acetyl-4-[3,3-dimethyl-2-(2-methylamino-propionylamino)-butyryl]-octahydro-pyrrolo[3,2-b]pyrrole-3-carboxylic acid 4-fluoro-benzylamide], the dissociation constant (Kd) at cIAP-1 BIR-3 and at XIAP BIR-3 was under 100 nM throughout. Also, the CC50 in the assay with SK-OV-3 cells was under 100 nM.

With `CN[C@@H](C)C(=O)N[C@H](C(=O)N1CC[C@@H]2[C@H]1[C@@H](C(=O)N[C@@H]1CCCc3ccccc31)CN2C(C)=O)C1CCCCC1` [Example 36, 1-Acetyl-4-[2-cyclohexyl-2-(2-methylamino-propionylamino)-acetyl]-octahydro-pyrrolo[3,2-b]pyrrole-3-carboxylic acid (1,2,3,4-tetrahydro-naphthalen-1-yl)-amide], the Kd on cIAP-1 BIR-3 and on XIAP BIR-3 was under 100 nM in each case. In the assay on SK-OV-3 cells, the CC50 was under 100 nM.

With `CN[C@@H](C)C(=O)N[C@H](C(=O)N1CC[C@@H]2[C@H]1[C@@H](C(=O)Nc1cccc3ccccc13)CN2C(C)=O)C(C)(C)C` [Example 37, 1-Acetyl-4-[3,3-dimethyl-2-(2-methylamino-propionylamino)-butyryl]-octahydro-pyrrolo[3,2-b]pyrrole-3-carboxylic acid naphthalen-1-ylamide], the equilibrium dissociation constant (Kd) on cIAP-1 BIR-3 and at XIAP BIR-3 was under 100 nM throughout. Also, in the assay on SK-OV-3 cells, the CC50 is under 100 nM.

On to `CN[C@@H](C)C(=O)N[C@H](C(=O)N1CC[C@@H]2[C@H]1[C@@H](C(=O)NCc1ccccc1)CN2C(C)=O)C(C)(C)C` [Example 38, 1-Acetyl-4-[3,3-dimethyl-2-(2-methylamino-propionylamino)-butyryl]-octahydro-pyrrolo[3,2-b]pyrrole-3-carboxylic acid benzylamide], for which the Kd at cIAP-1 BIR-3 and at XIAP BIR-3 was under 100 nM each time. Besides, the CC50 in the assay with SK-OV-3 cells is under 100 nM.

For `CN[C@@H](C)C(=O)N[C@H](C(=O)N1CC[C@@H]2[C@H]1[C@@H](C(=O)N[C@@H]1CCCc3ccccc31)CN2C(=O)OC)C1CCCCC1` [Example 39, 4-[2-Cyclohexyl-2-(2-methylamino-propionylamino)-acetyl]-3-(1,2,3,4-tetrahydro-naphthalen-1-ylcarbamoyl)-hexahydro-pyrrolo[3,2-b]pyrrole-1-carboxylic acid methyl ester], the Kd on cIAP-1 BIR-3 and on XIAP BIR-3 was under 100 nM in each case. Further, in the assay on SK-OV-3 cells, the CC50 was under 100 nM.

As for `CNC(=O)N1C[C@H](C(=O)N[C@@H]2CCCc3ccccc32)[C@@H]2[C@H]1CCN2C(=O)[C@@H](NC(=O)[C@H](C)NC)C(C)(C)C` [Example 40, 4-[3,3-Dimethyl-2-(2-methylamino-propionylamino)-butyryl]-hexahydro-pyrrolo[3,2-b]pyrrole-1,3-dicarboxylic acid 1-methylamide 3-[(1,2,3,4-tetrahydro-naphthalen-1-yl)-amide]], the dissociation constant (Kd) at cIAP-1 BIR-3 and on XIAP BIR-3 was under 100 nM throughout. Also, in the assay on SK-OV-3 cells, the CC50 is under 100 nM.

Take `CNC(=O)N1C[C@H](C(=O)NCc2ccc(F)cc2)[C@@H]2[C@H]1CCN2C(=O)[C@@H](NC(=O)[C@H](C)NC)C(C)(C)C` [Example 41, 4-[3,3-Dimethyl-2-(2-methylamino-propionylamino)-butyryl]-hexahydro-pyrrolo[3,2-b]pyrrole-1,3-dicarboxylic acid 3-(4-fluoro-benzylamide) 1-methylamide]: the dissociation constant (Kd) at cIAP-1 BIR-3 and at XIAP BIR-3 was under 100 nM throughout. Besides, the CC50 in the assay with SK-OV-3 cells was under 100 nM.

Consider `CNC(=O)N1C[C@H](C(=O)Nc2cccc3ccccc23)[C@@H]2[C@H]1CCN2C(=O)[C@@H](NC(=O)[C@H](C)NC)C(C)(C)C` [Example 42, 4-[3,3-Dimethyl-2-(2-methylamino-propionylamino)-butyryl]-hexahydro-pyrrolo[3,2-b]pyrrole-1,3-dicarboxylic acid 1-methylamide 3-naphthalen-1-ylamide], for which the dissociation constant (Kd) on cIAP-1 BIR-3 and at XIAP BIR-3 was under 100 nM in each case. Besides, in the assay with SK-OV-3 cells, the CC50 is under 100 nM.

Take `CN[C@@H](C)C(=O)N[C@H](C(=O)N1CC[C@@H]2[C@H]1[C@@H](C(=O)N[C@@H]1CCCc3ccccc31)CN2c1ncccn1)C1CCCCC1` [Example 43, 4-[2-Cyclohexyl-2-(2-methylamino-propionylamino)-acetyl]-1-pyrimidin-2-yl-octahydro-pyrrolo[3,2-b]pyrrole-3-carboxylic acid (1,2,3,4-tetrahydro-naphthalen-1-yl)-amide]: the values for the dissociation constant (Kd) at cIAP-1 BIR-3 and at XIAP BIR-3 were under 100 nM and 100 to 1000 nM, respectively. The CC50 with SK-OV-3 cells is under 100 nM.

For `CN[C@@H](C)C(=O)N[C@H](C(=O)N1CC[C@@H]2[C@H]1[C@@H](C(=O)Nc1cccc3cnccc13)CN2S(C)(=O)=O)C(C)(C)C` [Example 44, 4-[3,3-Dimethyl-2-(2-methylamino-propionylamino)-butyryl]-1-methanesulfonyl-octahydro-pyrrolo[3,2-b]pyrrole-3-carboxylic acid isoquinolin-5-ylamide], the Kd was under 100 nM on cIAP-1 BIR-3 and 100 to 1000 nM on XIAP BIR-3. For the same compound, the CC50 in the assay with SK-OV-3 cells is under 100 nM.

Take `CN[C@@H](C)C(=O)N[C@H](C(=O)N1CC[C@@H]2[C@H]1[C@@H](C(=O)Nc1cccc3ccncc13)CN2S(C)(=O)=O)C(C)(C)C` [Example 45, 4-[3,3-Dimethyl-2-(2-methylamino-propionylamino)-butyryl]-1-methanesulfonyl-octahydro-pyrrolo[3,2-b]pyrrole-3-carboxylic acid isoquinolin-8-ylamide]: the dissociation constant Kd is under 100 nM at cIAP-1 BIR-3 and 100 to 1000 nM at XIAP BIR-3. The CC50 with SK-OV-3 cells was 100 to 1000 nM.

For the compound `CN[C@@H](C)C(=O)N[C@H](C(=O)N1CC[C@@H]2[C@H]1[C@@H](C(=O)Nc1cccc3cccnc13)CN2S(C)(=O)=O)C(C)(C)C` [Example 46, 4-[3,3-Dimethyl-2-(2-methylamino-propionylamino)-butyryl]-1-methanesulfonyl-octahydro-pyrrolo[3,2-b]pyrrole-3-carboxylic acid quinolin-8-ylamide], the values for the Kd at cIAP-1 BIR-3 and on XIAP BIR-3 were under 100 nM and 100 to 1000 nM, respectively. In addition, the CC50 in the assay on SK-OV-3 cells is under 100 nM.

As to `CN[C@@H](C)C(=O)N[C@H](C(=O)N1CC[C@@H]2[C@H]1[C@@H](C(=O)Nc1cccc3ncccc13)CN2S(C)(=O)=O)C(C)(C)C` [Example 47, 4-[3,3-Dimethyl-2-(2-methylamino-propionylamino)-butyryl]-1-methanesulfonyl-octahydro-pyrrolo[3,2-b]pyrrole-3-carboxylic acid quinolin-5-ylamide], the Kd at cIAP-1 BIR-3 and at XIAP BIR-3 was under 100 nM throughout. Moreover, in the assay with SK-OV-3 cells, the CC50 is under 100 nM.
